Laboratory results: patent publication US10098878B2, “HIF-2α inhibitors for treating iron overload disorders” (The Board of Regents of the University of Texas System, priority 2014, dated 2018)
Read-outs that look alike come from different tables or passages of the source.

Target: T1, HIF-2α HIS TAG-PASB Domain (Homo sapiens, UniProt Q99814)
T1 construct: 100 nM HIF-2α HIS TAG-PASB Domain
Test: HIF-2α Scintillation Proximity Assay (SPA)
Format: binding
Settings: 100 nM HIF-2α HIS TAG-PASB Domain
Procedure: The total assay volume was about 100 μL in the following configuration: 2 μL compound in 100% DMSO, 88 μL buffer with protein and probe and 10 μL of SPA beads. […] The percent inhibition was determined and IC50 values were calculated using the Dotmatics system based on the following equation: % inhibition=[(high control−sample)/(high control−low control)]×100.

[1] = 150 nM Compound 211 probe, read-out: SPA IC50
[2] = SPA IC50, 150 nM Compound 211 probe

T1 sequence (Q99814 240-350 limits assumed): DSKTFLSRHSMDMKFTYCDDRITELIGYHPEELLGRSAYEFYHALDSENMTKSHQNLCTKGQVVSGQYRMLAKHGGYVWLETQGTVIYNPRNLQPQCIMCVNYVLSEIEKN

Row | Compound | IC50 [1] [µM] | IC50 [2] [µM]
1 | CS(=O)(=O)c1ccc(Oc2cncc(Br)c2)c2c1C(=O)C(F)(F)C2 [Compound 87, 4-((5-Bromopyridin-3-yl)oxy)-2,2-difluoro-7-(methylsulfonyl)-2,3-dihydro-1H-inden-1-one] | 5.3 | –
2 | CC(C)(C)OC(=O)N[C@H]1C[C@@H](O)c2c(S(=O)(=O)C(F)(F)F)ccc(Oc3cc(F)cc(C#N)c3)c21 (relative stereo) [Compound 42, tert-butyl(cis-7-(3-cyano-5-fluorophenoxy)-3-hydroxy-4-((trifluoromethyl)sulfonyl)-2,3-dihydro-1H-inden-1-yl)carbamate] | 2.2 | –
3 | N#Cc1cc(F)cc(Oc2ccc3c(c2Br)[C@@H](O)CS3(=O)=O)c1 [Compound 179, (R)-3-((4-Bromo-3-hydroxy-1,1-dioxido-2,3-dihydrobenzo[b]thiophen-5-yl)oxy)-5-fluorobenzonitrile] | 13.4 | –
4 | N#Cc1cc(F)cc(Oc2ccc3c(c2C(F)F)C(=N)C(F)S3(=O)=O)c1 (centres unmarked) [Compound 137, 3-((4-(difluoromethyl)-2-fluoro-3-imino-1,1-dioxido-2,3-dihydrobenzo[b]thiophen-5-yl)oxy)-5-fluorobenzonitrile] | 5.8 | –
5 | C=C1CC(O)c2c(S(C)(=O)=O)ccc(Oc3cc(F)cc(Cl)c3)c21 (centres unmarked) [Compound 44, 4-(3-chloro-5-fluorophenoxy)-3-methylene-7-(methylsulfonyl)-2,3-dihydro-1H-inden-1-ol] | 3.39 | –
6 | N#CN=S(=O)(CF)c1ccc(Oc2cc(F)cc(C#N)c2)c2c1[C@H](O)CC2 (single isomer, unassigned) [Compound 46] | 7.2 | –
7 | COc1cncc(Oc2ccc3c(c2Br)[C@@H](O)C(F)(F)S3(=O)=O)c1 [Compound 193, (R)-4-bromo-2,2-difluoro-3-hydroxy-5-((5-methoxypyridin-3-yl)oxy)-2,3-dihydrobenzo[b]thiophene 1,1-dioxide] | 14.3 | –
8 | NC1c2c(ccc(Oc3cc(F)cc(F)c3)c2C(F)F)S(=O)(=O)C1F (centres unmarked) [Compound 130, 3-amino-4-(difluoromethyl)-5-(3,5-difluorophenoxy)-2-fluoro-2,3-dihydrobenzo[b]thiophene 1,1-dioxide] | 1.5 | –
9 | CC1(C)C(O)c2c(ccc(Oc3cc(F)cc(Cl)c3)c2C#N)S1(=O)=O (centres unmarked) [Compound 172, 5-(3-Chloro-5-fluoro-phenoxy)-3-hydroxy-2,2-dimethyl-1,1-dioxo-3H-benzothiophene-4-carbonitrile] | 19.6 | –
10 | O=S1(=O)c2ccc(Oc3cc(F)cc(Cl)c3)cc2C(O)C1(F)F (centres unmarked) [Compound 126, 5-(3-Chloro-5-fluorophenoxy)-2,2-difluoro-3-hydroxy-2,3-dihydrobenzo[b]thiophene 1,1-dioxide] | – | 1.88
11 | N#Cc1c(Oc2cc(F)cc(Cl)c2)ccc2c1CCS2(=O)=O [Compound 115, 5-(3-Chloro-5-fluorophenoxy)-2,3-dihydrobenzo[b]thiophene-4-carbonitrile 1,1-dioxide] | 4.9 | –
12 | O=S(=O)(c1ccc(Oc2cc(F)cc(Cl)c2)c2c1[C@H](O)C[C@@H]2CO)C(F)(F)F [Compound 45, (1R,3S)-4-(3-chloro-5-fluorophenoxy)-3-(hydroxymethyl)-7-((trifluoromethyl)sulfonyl)-2,3-dihydro-1H-inden-1-ol] | 0.73 | –
13 | CS(=O)(=O)N=S(=O)(CF)c1ccc(Oc2cc(F)cc(C#N)c2)c2c1[C@H](O)C(F)(F)C2 (stereo partly drawn) [Compound 48, N—(((S)-7-(3-cyano-5-fluorophenoxy)-2,2-difluoro-3-hydroxy-2,3-dihydro-1H-inden-4-yl)(fluoromethyl)(oxo)-λ^6-sulfanylidene)methanesulfonamide] | 5.6 | –
14 | O=S(=O)(c1ccc(Oc2ccc3[nH]ncc3c2)c2c1C(O)C(F)(F)C2)C(F)(F)F (centres unmarked) [Compound 19, 4-((1H-Indazol-5-yl)oxy)-2,2-difluoro-7-((trifluoromethyl)sulfonyl)-2,3-dihydro-1H-inden-1-ol] | 4.9 | –
15 | COCCNC1c2c(ccc(Oc3cc(F)cc(C#N)c3)c2C(F)F)S(=O)(=O)C1(F)F (centres unmarked) [Compound 146, 3-((4-(Difluoromethyl)-2,2-difluoro-3-((2-methoxyethyl)amino)-1,1-dioxido-2,3-dihydrobenzo[b]thiophen-5-yl)oxy)-5-fluorobenzonitrile] | 2.89 | –
16 | N#CN=S(=O)(CF)c1ccc(Oc2cc(F)cc(C#N)c2)c2c1[C@H](O)[C@H](F)C2 (single isomer, unassigned) [Compound 41] | 0.13 | –
17 | O=S1(=O)C[C@H](O)c2c1ccc(Oc1cc(F)cc(F)c1)c2Br [Compound 177, (R)-4-bromo-5-(3,5-difluorophenoxy)-3-hydroxy-2,3-dihydrobenzo[b]thiophene 1,1-dioxide] | 4.66 | –
18 | N#CN=S(=O)(CF)c1ccc(Oc2cc(F)cc(C#N)c2)c2c1[C@H](O)C(F)(F)C2 (single isomer, unassigned) [Compound 50] | 0.024 | –
19 | N#CN=S(=O)(c1ccc(Oc2cc(F)cc(C#N)c2)c2c1[C@H](O)[C@H](F)C2)C(F)F (single isomer, unassigned) [Compound 61] | 12.4 | –

Row | Compound | IC50 [1] [µM] | IC50 [2] [µM]
20 | CS(=O)(=O)c1ccc(Oc2cncc(Br)c2)c2c1[C@H](O)[C@H](F)C2 [Compound 90, (1S,2R)-4-((5-Bromopyridin-3-yl)oxy)-2-fluoro-7-(methylsulfonyl)-2,3-dihydro-1H-inden-1-ol] | 1.28 | –
21 | N#CN=S1(=O)CC(O)c2c1ccc(Oc1cc(F)cc(F)c1)c2C(F)F (centres unmarked) [Compound 159, N-(4-(difluoromethyl)-5-(3,5-difluorophenoxy)-3-hydroxy-1-oxido-2,3-dihydro-1λ^4-benzo[b]thiophen-1-ylidene)cyanamide] | 17.4 | –
22 | N#Cc1c(Oc2cc(F)cc(Cl)c2)ccc2c1[C@H](O)CS2(=O)=O [Compound 171, (3S)-5-(3-Chloro-5-fluoro-phenoxy)-3-hydroxy-1,1-dioxo-2,3-dihydrobenzothiophene-4-carbonitrile] | 12.9 | –
23 | N#Cc1cncc(Oc2ccc3c(c2Br)[C@@H](O)CS3(=O)=O)c1 [Compound 184, (R)-5-((4-bromo-3-hydroxy-1,1-dioxido-2,3-dihydrobenzo[b]thiophen-5-yl)oxy)nicotinonitrile] | 10.2 | –
24 | O=C1CS(=O)(=O)c2ccc(Oc3cc(F)cc(F)c3)cc21 [Compound 181, 5-(3,5-Difluorophenoxy)benzo[b]thiophen-3(2H)-one 1,1-dioxide] | 17.6 | –
25 | CS(=O)(=O)c1ccc(Oc2cc(F)cc(C#N)c2)c2c1[C@H](O)C(F)(F)[C@H]2O [Compound 75, 3-[(1S,3S)-2,2-difluoro-1,3-dihydroxy-7-methylsulfonyl-indan-4-yl]oxy-5-fluoro-benzonitrile] | 8.7 | –
26 | O=S1(=O)CCC(O)c2c1ccc(Oc1cc(F)cc(F)c1)c2C(F)F (centres unmarked) [Compound 166, 5-(Difluoromethyl)-6-(3,5-difluorophenoxy)-4-hydroxythiochromane 1,1-dioxide] | – | 4.1
27 | N#Cc1cc(F)cc(Oc2ccc3c(c2C#CCF)C(O)C(F)(F)S3(=O)=O)c1 (centres unmarked) [Compound 174, 3-[[2,2-Difluoro-4-(3-fluoroprop-1-ynyl)-3-hydroxy-1,1-dioxo-3H-benzothiophen-5-yl]oxy]-5-fluoro-benzonitrile] | 10.9 | –
28 | C=CCN=S(=O)(c1ccc(Oc2cc(F)cc(C#N)c2)c2c1[C@H](O)C(F)(F)C2)C(F)(F)F (single isomer, unassigned) [Compound 72] | 0.068 | –
29 | N#CN=S(=O)(c1ccc(Oc2cc(F)cc(C#N)c2)c2c1[C@H](O)[C@H](F)C2)C(F)F (single isomer, unassigned) [Compound 63] | 16.1 | –
30 | N#Cc1cc(F)cc(Oc2ccc3c(c2Br)C(=O)C(F)(F)S3(=O)=O)c1 [Compound 157, 3-((4-Bromo-2,2-difluoro-1,1-dioxido-3-oxo-2,3-dihydrobenzo[b]thiophen-5-yl)oxy)-5-fluorobenzonitrile] | 9.7 | –
31 | CS(=O)(=NC#N)c1ccc(Oc2cc(F)cc(C#N)c2)c2c1[C@@H](O)C(F)(F)[C@@H]2F (single isomer, unassigned) [Compound 86] | 9.9 | –
32 | C[C@]1(F)Cc2c(Oc3cc(F)cc(C#N)c3)ccc(S(C)(=O)=O)c2[C@@H]1O [Compound 62, 3-fluoro-5-(((1S,2S)-2-fluoro-1-hydroxy-2-methyl-7-(methylsulfonyl)-2,3-dihydro-1H-inden-4-yl)oxy)benzonitrile] | 16.1 | –
33 | CS(=O)(=O)c1ccc(Oc2cc(F)cc(C#N)c2)c2c1[C@H](O)CC2(F)F [Compound 52, 3-[(1R)-3,3-difluoro-1-hydroxy-7-methylsulfonyl-indan-4-yl]oxy-5-fluoro-benzonitrile] | 6.5 | –
34 | O=C1c2c(ccc(Oc3cc(F)cc(Cl)c3)c2Br)S(=O)(=O)C1(F)F [Compound 118, 4-Bromo-5-(3-chloro-5-fluorophenoxy)-2,2-difluorobenzo[b]thiophen-3(2H)-one 1,1-dioxide] | 1.4 | –
35 | O=C1c2c(ccc(Oc3cc(F)cc(Cl)c3)c2Br)S(=O)(=O)C12CC2 [Compound 168, 4-Bromo-5-(3-chloro-5-fluoro-phenoxy)-1,1-dioxo-spiro[benzothiophene-2,1′-cyclopropane]-3-one] | 6.3 | –
36 | CS(=O)(=NC#N)c1ccc(Oc2cc(F)cc(C#N)c2)c2c1[C@@H](O)C(F)(F)[C@@H]2F (single isomer, unassigned) [Compound 84] | 1.57 | –
37 | CS(=O)(=O)c1ccc(Oc2cncc(Cl)c2)c2c1[C@H](O)C(F)(F)[C@H]2F [Compound 96, (1S,3S)-4-((5-chloropyridin-3-yl)oxy)-2,2,3-trifluoro-7-(methylsulfonyl)-2,3-dihydro-1H-inden-1-ol] | 2.3 | –
38 | CC1(C)C(O)c2c(ccc(Oc3cc(F)cc(Cl)c3)c2Br)S1(=O)=O (centres unmarked) [Compound 170, 4-Bromo-5-(3-chloro-5-fluoro-phenoxy)-2,2-dimethyl-1,1-dioxo-3H-benzothiophen-3-ol] | – | 21.9
